From the NIST ThermoML archive (doi:10.1021/acs.jced.6b00455)

Test: mn = molality of the nth substance listed, in mol/kg
Details: 101 kPa, Liquid, Alternating current cell with electrodes

C[N+](C)(C)CCO.O=C([O-])C(F)(F)C(F)(F)C(F)(F)C(F)(F)C(F)(F)C(F)(F)F [(2-hydroxyethyl)trimethylammonium perfluoroheptanoate] + O
Details | electrical conductivity [S/m]
293.15 K, m1 = 0.000135 | 0.0009
293.15 K, m1 = 0.000317 | 0.002
293.15 K, m1 = 0.000535 | 0.0035
293.15 K, m1 = 0.000719 | 0.0047
293.15 K, m1 = 0.000905 | 0.0059
293.15 K, m1 = 0.001097 | 0.0071
293.15 K, m1 = 0.001295 | 0.0083
293.15 K, m1 = 0.001556 | 0.01
293.15 K, m1 = 0.001738 | 0.0112
293.15 K, m1 = 0.001921 | 0.0124
293.15 K, m1 = 0.002361 | 0.0151
293.15 K, m1 = 0.002553 | 0.0164
293.15 K, m1 = 0.002745 | 0.0179
293.15 K, m1 = 0.002967 | 0.0189
293.15 K, m1 = 0.003167 | 0.0201
293.15 K, m1 = 0.003365 | 0.021
293.15 K, m1 = 0.003617 | 0.0224
293.15 K, m1 = 0.003811 | 0.0234
293.15 K, m1 = 0.003989 | 0.0244
293.15 K, m1 = 0.004235 | 0.0259
293.15 K, m1 = 0.004463 | 0.0271
293.15 K, m1 = 0.004647 | 0.0283
293.15 K, m1 = 0.005243 | 0.0318
293.15 K, m1 = 0.00563 | 0.0339
293.15 K, m1 = 0.006196 | 0.037
293.15 K, m1 = 0.006659 | 0.0405
293.15 K, m1 = 0.006813 | 0.0416
293.15 K, m1 = 0.007215 | 0.0437
293.15 K, m1 = 0.007673 | 0.0468
293.15 K, m1 = 0.007989 | 0.0489
298.15 K, m1 = 0.000182 | 0.0012
298.15 K, m1 = 0.000351 | 0.0023
298.15 K, m1 = 0.000524 | 0.0036
298.15 K, m1 = 0.000696 | 0.0048
298.15 K, m1 = 0.000849 | 0.0059
298.15 K, m1 = 0.001022 | 0.0071
298.15 K, m1 = 0.001139 | 0.0079
298.15 K, m1 = 0.001334 | 0.0092
298.15 K, m1 = 0.001552 | 0.0107
298.15 K, m1 = 0.001763 | 0.0123
298.15 K, m1 = 0.001988 | 0.014
298.15 K, m1 = 0.002225 | 0.0158
298.15 K, m1 = 0.002433 | 0.0172
298.15 K, m1 = 0.002631 | 0.0186
298.15 K, m1 = 0.00283 | 0.0198
298.15 K, m1 = 0.003092 | 0.0212
298.15 K, m1 = 0.003297 | 0.0222
298.15 K, m1 = 0.003578 | 0.0237
298.15 K, m1 = 0.003893 | 0.0254
298.15 K, m1 = 0.004239 | 0.0271
298.15 K, m1 = 0.004535 | 0.0288
298.15 K, m1 = 0.004786 | 0.0303
298.15 K, m1 = 0.00505 | 0.0318
298.15 K, m1 = 0.005319 | 0.0333
298.15 K, m1 = 0.005529 | 0.0345
298.15 K, m1 = 0.005823 | 0.0361
303.15 K, m1 = 0.000162 | 0.0014
303.15 K, m1 = 0.000327 | 0.0027
303.15 K, m1 = 0.000396 | 0.0031
303.15 K, m1 = 0.000558 | 0.0045
303.15 K, m1 = 0.000597 | 0.0046
303.15 K, m1 = 0.000902 | 0.0068
303.15 K, m1 = 0.001056 | 0.0084
303.15 K, m1 = 0.001145 | 0.0088
303.15 K, m1 = 0.001333 | 0.0102
303.15 K, m1 = 0.001525 | 0.0116
303.15 K, m1 = 0.001575 | 0.0126
303.15 K, m1 = 0.001779 | 0.0138
303.15 K, m1 = 0.001975 | 0.0164
303.15 K, m1 = 0.00219 | 0.0173
303.15 K, m1 = 0.002392 | 0.0187
303.15 K, m1 = 0.002573 | 0.0201
303.15 K, m1 = 0.002757 | 0.0218
303.15 K, m1 = 0.003 | 0.0233
303.15 K, m1 = 0.003295 | 0.0254
303.15 K, m1 = 0.003479 | 0.0262
303.15 K, m1 = 0.003569 | 0.0269
303.15 K, m1 = 0.00377 | 0.0282
303.15 K, m1 = 0.00395 | 0.0297
303.15 K, m1 = 0.004136 | 0.0313
303.15 K, m1 = 0.004356 | 0.033
303.15 K, m1 = 0.00458 | 0.0343
303.15 K, m1 = 0.004761 | 0.0357
303.15 K, m1 = 0.005083 | 0.0368
308.15 K, m1 = 0.000308 | 0.0028
308.15 K, m1 = 0.001088 | 0.0096
308.15 K, m1 = 0.001458 | 0.0131
308.15 K, m1 = 0.001696 | 0.0151
308.15 K, m1 = 0.001932 | 0.0174
308.15 K, m1 = 0.002314 | 0.0204
308.15 K, m1 = 0.002768 | 0.0243
308.15 K, m1 = 0.002948 | 0.0255
308.15 K, m1 = 0.003212 | 0.0279
308.15 K, m1 = 0.003414 | 0.0297
308.15 K, m1 = 0.003749 | 0.0324
308.15 K, m1 = 0.004024 | 0.0348
308.15 K, m1 = 0.004369 | 0.037
308.15 K, m1 = 0.004622 | 0.0392
308.15 K, m1 = 0.004874 | 0.0413
308.15 K, m1 = 0.00517 | 0.0438
308.15 K, m1 = 0.005462 | 0.0462
313.15 K, m1 = 0.000152 | 0.0016
313.15 K, m1 = 0.000311 | 0.0032
313.15 K, m1 = 0.000509 | 0.005
313.15 K, m1 = 0.000756 | 0.0072
313.15 K, m1 = 0.000952 | 0.0094
313.15 K, m1 = 0.001127 | 0.0112
313.15 K, m1 = 0.001383 | 0.0138
313.15 K, m1 = 0.001573 | 0.0155
313.15 K, m1 = 0.001796 | 0.0179
313.15 K, m1 = 0.001971 | 0.0201
313.15 K, m1 = 0.002233 | 0.0227
313.15 K, m1 = 0.002359 | 0.0239
313.15 K, m1 = 0.002573 | 0.0262
313.15 K, m1 = 0.002937 | 0.0297
313.15 K, m1 = 0.003135 | 0.0321
313.15 K, m1 = 0.003363 | 0.0336
313.15 K, m1 = 0.003618 | 0.0359
313.15 K, m1 = 0.003798 | 0.0379
313.15 K, m1 = 0.003983 | 0.0396
313.15 K, m1 = 0.004151 | 0.0413
313.15 K, m1 = 0.004487 | 0.0444
313.15 K, m1 = 0.004771 | 0.0466
313.15 K, m1 = 0.00507 | 0.0489
313.15 K, m1 = 0.005297 | 0.0508
313.15 K, m1 = 0.005682 | 0.0543
